Assay results published in the NIST ThermoML archive (doi:10.1016/j.jct.2004.11.013).

Legend:
[1] = Liquid; for speed of sound / mass density: 303.15 K, 101.33 kPa; for speed of sound: Linear variable-path acoustic interferometer; for mass density: Pycnometric method
[2] = xn = mol fraction of the nth substance listed; conditions: 303.15 K, 101.33 kPa, Liquid, Direct dilatometry
[3] = φn = volume fraction of the nth substance listed; conditions: 303.15 K, 101.33 kPa, Liquid, Linear variable-path acoustic interferometer

CC(Cl)(Cl)Cl [1,1,1-trichloroethane]
[1]
Conditions | Normal boiling temperature [°C] | mass density [kg/m3] | speed of sound [m/s]
– | 74 | 1320.92 | 943.2

CC(Cl)(Cl)Cl [1,1,1-trichloroethane] + BrCCBr
Conditions | excess molar volume [m3/mol] | speed of sound [m/s]
[2], x2 = 0.0902 | -7.3e-08 | –
[2], x2 = 0.1941 | -1.2e-07 | –
[2], x2 = 0.2744 | -1.33e-07 | –
[2], x2 = 0.4169 | -1.11e-07 | –
[2], x2 = 0.5239 | -6.4e-08 | –
[2], x2 = 0.6304 | -6e-09 | –
[2], x2 = 0.6818 | 2.1e-08 | –
[2], x2 = 0.8709 | 6.9e-08 | –
[3], φ2 = 0 | – | 943.2
[3], φ2 = 0.0787 | – | 942.1
[3], φ2 = 0.1718 | – | 942.1
[3], φ2 = 0.2457 | – | 944.6
[3], φ2 = 0.3811 | – | 950.4
[3], φ2 = 0.4866 | – | 958.1
[3], φ2 = 0.595 | – | 961
[3], φ2 = 0.6486 | – | 965.1
[3], φ2 = 0.8532 | – | 973.6

ClC(Cl)C(Cl)Cl [1,1,2,2-tetrachloroethane]
[1]
Conditions | Normal boiling temperature [°C] | mass density [kg/m3] | speed of sound [m/s]
– | 146.10 | 1578.57 | 1133.1

ClC(Cl)C(Cl)Cl [1,1,2,2-tetrachloroethane] + BrCCBr
Conditions | speed of sound [m/s]
[3], φ2 = 0 | 1133.1

BrCCBr [1,2-dibromoethane]
[1]
Conditions | Normal boiling temperature [°C] | mass density [kg/m3] | speed of sound [m/s]
– | 131.50 | 2159.67 | 984

BrCCBr [1,2-dibromoethane] + CC(Cl)(Cl)Cl
Conditions | speed of sound [m/s]
[3], φ1 = 1 | 984

BrCCBr [1,2-dibromoethane] + ClC(Cl)=C(Cl)Cl
Conditions | excess molar volume [m3/mol] | speed of sound [m/s]
[2], x1 = 0.1133 | 3e-07 | –
[2], x1 = 0.2647 | 4.61e-07 | –
[2], x1 = 0.3594 | 4.72e-07 | –
[2], x1 = 0.4806 | 4.4e-07 | –
[2], x1 = 0.6289 | 3.66e-07 | –
[2], x1 = 0.7163 | 3.1e-07 | –
[2], x1 = 0.7934 | 2.55e-07 | –
[2], x1 = 0.906 | 1.43e-07 | –
[3], φ1 = 0.0955 | – | 1010.1
[3], φ1 = 0.2327 | – | 992.8
[3], φ1 = 0.321 | – | 985.8
[3], φ1 = 0.4381 | – | 980.4
[3], φ1 = 0.5881 | – | 975.3
[3], φ1 = 0.6802 | – | 975.1
[3], φ1 = 0.7639 | – | 973.7
[3], φ1 = 0.8904 | – | 978.1
[3], φ1 = 1 | – | 984

BrCCBr [1,2-dibromoethane] + ClC(Cl)C(Cl)Cl
Conditions | excess molar volume [m3/mol] | speed of sound [m/s]
[2], x1 = 0.0885 | -5.2e-08 | –
[2], x1 = 0.1554 | -9e-08 | –
[2], x1 = 0.3032 | -1.56e-07 | –
[2], x1 = 0.4447 | -1.71e-07 | –
[2], x1 = 0.5365 | -1.56e-07 | –
[2], x1 = 0.6757 | -9.8e-08 | –
[2], x1 = 0.7546 | -5.9e-08 | –
[2], x1 = 0.9124 | -3e-09 | –
[3], φ1 = 0.0736 | – | 1123.4
[3], φ1 = 0.1308 | – | 1112.7
[3], φ1 = 0.2625 | – | 1092.9
[3], φ1 = 0.3958 | – | 1069.6
[3], φ1 = 0.4864 | – | 1054.5
[3], φ1 = 0.6302 | – | 1031.7
[3], φ1 = 0.7156 | – | 1019.7
[3], φ1 = 0.895 | – | 995
[3], φ1 = 1 | – | 984

BrCCBr [1,2-dibromoethane] + ClC=C(Cl)Cl
Conditions | speed of sound [m/s]
[3], φ1 = 1 | 984

BrCCBr [1,2-dibromoethane] + ClCCCl
Conditions | excess molar volume [m3/mol] | speed of sound [m/s]
[2], x1 = 0.0938 | 1.7e-08 | –
[2], x1 = 0.1759 | 3e-08 | –
[2], x1 = 0.2673 | 4.2e-08 | –
[2], x1 = 0.3502 | 4.7e-08 | –
[2], x1 = 0.4894 | 5.2e-08 | –
[2], x1 = 0.5845 | 5.1e-08 | –
[2], x1 = 0.7764 | 3.5e-08 | –
[2], x1 = 0.8626 | 2.5e-08 | –
[3], φ1 = 0.1012 | – | 1149.2
[3], φ1 = 0.1885 | – | 1125
[3], φ1 = 0.2842 | – | 1101.8
[3], φ1 = 0.3697 | – | 1079.6
[3], φ1 = 0.5106 | – | 1047.3
[3], φ1 = 0.6049 | – | 1029.8
[3], φ1 = 0.7908 | – | 1001.3
[3], φ1 = 0.8724 | – | 993
[3], φ1 = 1 | – | 984

ClCCCl [1,2-dichloroethane]
[1]
Conditions | Normal boiling temperature [°C] | mass density [kg/m3] | speed of sound [m/s]
– | 83.6 | 1238.28 | 1173.3

ClCCCl [1,2-dichloroethane] + BrCCBr
Conditions | speed of sound [m/s]
[3], φ2 = 0 | 1173.3

ClC(Cl)=C(Cl)Cl [tetrachloroethene]
[1]
Conditions | Normal boiling temperature [°C] | mass density [kg/m3] | speed of sound [m/s]
– | 121.30 | 1606.36 | 1027.8

ClC(Cl)=C(Cl)Cl [tetrachloroethene] + BrCCBr
Conditions | speed of sound [m/s]
[3], φ2 = 0 | 1027.8

ClC=C(Cl)Cl [trichloroethene]
[1]
Conditions | Normal boiling temperature [°C] | mass density [kg/m3] | speed of sound [m/s]
– | 87.2 | 1451.34 | 1013.7

ClC=C(Cl)Cl [trichloroethene] + BrCCBr
Conditions | excess molar volume [m3/mol] | speed of sound [m/s]
[2], x2 = 0.0956 | 6.3e-08 | –
[2], x2 = 0.2077 | 1.29e-07 | –
[2], x2 = 0.3035 | 1.74e-07 | –
[2], x2 = 0.4561 | 2.09e-07 | –
[2], x2 = 0.5499 | 2.08e-07 | –
[2], x2 = 0.7069 | 1.64e-07 | –
[2], x2 = 0.7903 | 1.25e-07 | –
[2], x2 = 0.8924 | 6.4e-08 | –
[3], φ2 = 0 | – | 1013.7
[3], φ2 = 0.0922 | – | 1000.5
[3], φ2 = 0.2012 | – | 990.5
[3], φ2 = 0.2951 | – | 982.5
[3], φ2 = 0.4462 | – | 973.5
[3], φ2 = 0.54 | – | 971.2
[3], φ2 = 0.6986 | – | 968.2
[3], φ2 = 0.7836 | – | 972.4
[3], φ2 = 0.8885 | – | 975.9
